# Measured values from patent US11479525B2, “Propenylamines and methods of making and using same” (3M INNOVATIVE PROPERTIES COMPANY, priority 2016, dated 2022).
# Experiment: Atmospheric lifetime from the rate of reaction with hydroxyl radicals, relative to reference compounds (FTIR gas cell)
# Type: physicochemical
# Settings: gas phase reaction with hydroxyl radical relative to chloromethane/ethane; for Atmospheric Lifetime, E-isomer: E-isomer of the 1-propenylamine; for Atmospheric Lifetime, Z-isomer: Z-isomer of the 1-propenylamine
# Procedure: The atmospheric lifetimes of 1-propenylamines were determined from their rate of reaction with hydroxyl radicals. The pseudo-first order rates for the reaction of the gaseous 1-propenylamines with hydroxyl radical were measured in a series of experiments relative to reference compounds such as chloromethane and ethane. The measurements were performed in a 5.7 L, heated FTIR gas cell equipped with a polished semiconductor-grade quartz window. An Oriel Instruments UV Lamp, Model 66921 equipped with a 480 W mercury-xenon bulb was used to generate hydroxyl radicals by photolyzing ozone in the presence of water vapor. The concentrations of the 1-propenylamine and the reference compound were measured as a function of reaction time using an I-Series FTIR from Midac Corporation. The atmospheric lifetimes were calculated from the reaction rates for the 1-propenylamines relative to the reference compounds and the reported lifetime of the reference compounds as shown below:
# [formula] where τx is the atmospheric lifetime of the 1-propenylamine, τr is the atmospheric lifetime of the reference compound, and kx and kr are the rate constants for the reaction of hydroxyl radical with the isomeric 1-propenylamines and the reference compound, respectively.
smiles,measurement,value
"FC(=C(F)C(F)(F)F)N(C(F)(F)F)C(F)(F)F [(CF3)2N—CF═CFCF3, 1,2,3,3,3-pentafluoro-N,N-bis(trifluoromethyl)prop-1-en-1-amine]","Atmospheric Lifetime, E-isomer",0.71 Yrs
same,"Atmospheric Lifetime, Z-isomer",1.9 Yrs
FC(=C(F)C(F)(F)F)N(C(F)(F)F)C(F)(F)C(F)(F)F [C2F5(CF3)N—CF═CFCF3],"Atmospheric Lifetime, E-isomer",1.4 Yrs
same,"Atmospheric Lifetime, Z-isomer",3.5 Yrs
